These results are taken from patent US12643905B2, “Spiropyrrolidine derived antiviral agents” (priority 2021, dated 2026).

The experiment addresses SARS-CoV-2 3CL-protease (Severe acute respiratory syndrome coronavirus 2, UniProt P0DTD1). Briefly: SARS-CoV-2 3C-like (3CL) protease fluorescence assay (FRET). Type of experiment: biochemical. The settings on record: 30 min preincubation, run in duplicate.
[1] abbreviates: recombinant SARS-CoV-2 3CL-protease 10 nM, read-out: FRET IC50.

Structures are written as SMILES. Where two headings read alike, the source gives them in different places.

For orientation: IC50 means the midpoint of a concentration-inhibition curve. `CC(C)(C)C[C@H](NC(=O)C(=O)Nc1ccc(C(F)(F)F)cn1)C(=O)N1C[C@]2(C[C@H]1C#N)C(=O)Nc1ccccc12` [Example 154]: the IC50 under setting [1] is below 100 nM.
As to `Cc1cccc(C)c1NC(=O)C(=O)N[C@@H](Cc1ccc(F)cc1)C(=O)N1C[C@]2(C[C@H]1C#N)C(=O)Nc1ccccc12` [Example 73], the concentration for half-maximal inhibition (IC50) under setting [1] is below 100 nM.
With `CC(C)(C)C[C@H](NC(=O)C(=O)N1CCC(C(F)(F)F)CC1)C(=O)N1C[C@]2(C[C@H]1C#N)C(=O)Nc1ccccc12` [Example 112], the concentration for half-maximal inhibition (IC50) under setting [1] is 100 to 1000 nM.
Consider `N#C[C@@H]1C[C@@]2(CN1C(=O)[C@H](CC1CC1)NC(=O)C(=O)Nc1c(C(F)(F)F)cccc1C(F)(F)F)C(=O)Nc1ccccc12` [Example 208], for which, under setting [1], the IC50 is below 100 nM.
The same measure, in the same setting: for `CC(C)(C)C[C@@H](C(=O)N1C[C@]2(C[C@H]1C#N)C(=O)Nc1ccccc12)N(CC(F)(F)F)C(=O)C(=O)NC1CC1` [Example 67] the value was 100 to 1000 nM.
Regarding `CN(C(=O)C(=O)Nc1ccc(C(F)(F)F)cc1C(F)(F)F)[C@@H](CC1CC1)C(=O)N1C[C@]2(C[C@H]1C#N)C(=O)Nc1ccccc12` [Example 198], the half-inhibitory concentration (IC50) (FRET IC50, recombinant SARS-CoV-2 3CL-protease 10 nM) was below 100 nM.
On to `[2H]C([2H])([2H])N(C(=O)C(=O)NCC(C)C)[C@@H](CCCC)C(=O)N1C[C@]2(C[C@H]1C#N)C(=O)Nc1ccccc12` [Example 56], for which the IC50 under setting [1] was below 100 nM.
Still for that read-out and setting: for `CC(C)(C)C[C@H](NC(=O)C(=O)Nc1ccncc1C(F)(F)F)C(=O)N1C[C@]2(C[C@H]1C#N)C(=O)Nc1ccccc12` [Example 177] the value was below 100 nM.
Same read-out and setting: in the case of `CC(C)(C)C[C@H](NC(=O)C(=O)N[C@]12C[C@](C(F)(F)F)(C1)C2)C(=O)N1C[C@]2(C[C@H]1C#N)C(=O)Nc1ccccc12` [Example 129] it was below 100 nM; in that of `N#C[C@@H]1C[C@@]2(CN1C(=O)[C@H](CC1CC1)NC(=O)C(=O)Nc1cnccc1C(F)(F)F)C(=O)Nc1ccccc12` [Example 172], below 100 nM.
Regarding `CC(C)(C)C[C@H](NC(=O)C(=O)Nc1c(F)cncc1F)C(=O)N1C[C@]2(C[C@H]1C#N)C(=O)Nc1ccccc12` [Example 122], the IC50 under setting [1] is below 100 nM.
On the same count and under the same terms, for `N#C[C@@H]1C[C@@]2(CN1C(=O)[C@H](CC1CC1)NC(=O)C(=O)Nc1c(C(F)(F)F)cncc1C(F)(F)F)C(=O)Nc1ccccc12` [Example 206] the value was below 100 nM; for `CC(C)(C)C[C@H](NC(=O)C(=O)OC(C)(C)C)C(=O)N1C[C@]2(C[C@H]1C#N)C(=O)Nc1ccccc12` [Example 188], 100 to 1000 nM; for `CC(C)(C)C[C@@H](C(=O)N1C[C@]2(C[C@H]1C#N)C(=O)Nc1ccccc12)N(CC(F)F)C(=O)C(=O)NC1CC1` [Example 63], 100 to 1000 nM.
`N#C[C@@H]1C[C@@]2(CN1C(=O)[C@H](CC1CC1)NC(=O)C(=O)Nc1cccnc1C(F)(F)F)C(=O)Nc1ccccc12` [Example 175]: the IC50 under setting [1] is below 100 nM.
In the case of `N#C[C@@H]1C[C@@]2(CN1C(=O)[C@H](CC1CC1)NC(=O)C(=O)Nc1ncccc1C(F)(F)F)C(=O)Nc1ccccc12` [Example 167], the IC50 under setting [1] is below 100 nM.
Still for that read-out and setting: for `CC(C)(C)C[C@H](NC(=O)C(=O)Nc1c(Cl)cccc1C(F)(F)F)C(=O)N1C[C@]2(C[C@H]1C#N)C(=O)Nc1ccccc12` [Example 197] the value was below 100 nM; for `CC(C)(C)C[C@H](NC(=O)C(=O)NC1(c2ccccc2F)CC1)C(=O)N1C[C@]2(C[C@H]1C#N)C(=O)Nc1ccccc12` [Example 139], below 100 nM.
Regarding `CC(C)(C)C[C@H](NC(=O)C(=O)Nc1cnccc1C(F)(F)F)C(=O)N1C[C@]2(C[C@H]1C#N)C(=O)Nc1ccccc12` [Example 156], under setting [1], the half-inhibitory concentration (IC50) was below 100 nM.
As to `CC(C)(C)C[C@H](NC(=O)C(=O)Nc1ccc(C(F)(F)F)cc1C(F)(F)F)C(=O)N1C[C@]2(C[C@H]1C#N)C(=O)Nc1ccccc12` [Example 166], under setting [1], the concentration for half-maximal inhibition (IC50) is below 100 nM.
As for `CC(C)(C)C[C@H](NC(=O)C(=O)Nc1ccc2[nH]ccc2c1)C(=O)N1C[C@]2(C[C@H]1C#N)C(=O)Nc1ccccc12` [Example 123], under setting [1], the IC50 is below 100 nM.
The same measure, in the same setting: for `CC(C)(C)C[C@H](NC(=O)C(=O)N[C@]12C[C@](F)(C1)C2)C(=O)N1C[C@]2(C[C@H]1C#N)C(=O)Nc1ccccc12` [Example 142] the value was below 100 nM.
On the same count and under the same terms, for `CC(C)(C)C[C@H](NC(=O)C(=O)N[C@@H]1CC2CC[C@H](C2)C1)C(=O)N1C[C@]2(C[C@H]1C#N)C(=O)Nc1ccccc12` [Example 165] the value was below 100 nM; for `CC(C)(C)C[C@H](NC(=O)C(=O)Nc1cncc(C(F)(F)F)c1)C(=O)N1C[C@]2(C[C@H]1C#N)C(=O)Nc1ccccc12` [Example 157], below 100 nM; for `CC(C)(C)C[C@H](NC(=O)C(=O)Nc1ccnc(C(F)(F)F)c1)C(=O)N1C[C@]2(C[C@H]1C#N)C(=O)Nc1ccccc12` [Example 128], below 100 nM.
`CC(C)(C)C[C@H](NC(=O)C(=O)Nc1ccc2cc[nH]c2c1)C(=O)N1C[C@]2(C[C@H]1C#N)C(=O)Nc1ccccc12` [Example 124]: the 50% inhibitory concentration (IC50) under setting [1] is below 100 nM.
As for `[2H]C([2H])([2H])N(C(=O)C(=O)Nc1ccc(C(F)(F)F)cc1)[C@@H](CC1CC1)C(=O)N1C[C@]2(C[C@H]1C#N)C(=O)Nc1ccccc12` [Example 54], the concentration for half-maximal inhibition (IC50) under setting [1] is below 100 nM.
For the compound `CC(C)(C)C[C@@H](C(=O)N1C[C@]2(C[C@H]1C#N)C(=O)Nc1ccccc12)N(CC(F)(F)F)C(=O)C(=O)Nc1ccc(F)cc1` [Example 64], the IC50 under setting [1] is 100 to 1000 nM.
Same read-out and setting: in the case of `CC(C)(C)C[C@H](NC(=O)C(=O)NC1CCC(F)(F)CC1)C(=O)N1C[C@]2(C[C@H]1C#N)C(=O)Nc1ccccc12` [Example 131] it was below 100 nM; in that of `CC(C)(C)C[C@H](NC(=O)C(=O)NC1(c2ccccc2C(F)(F)F)CC1)C(=O)N1C[C@]2(C[C@H]1C#N)C(=O)Nc1ccccc12` [Example 107], below 100 nM; in that of `CC(C)(C)C[C@H](NC(=O)C(=O)NC(C)(C)C(F)(F)F)C(=O)N1C[C@]2(C[C@H]1C#N)C(=O)Nc1ccccc12` [Example 135], below 100 nM.
Same read-out and setting: for `N#C[C@@H]1C[C@@]2(CN1C(=O)[C@H](CC1CC1)NC(=O)C(=O)Nc1c(Cl)cccc1C(F)(F)F)C(=O)Nc1ccccc12` [Example 194] the value was below 100 nM; for `CC(C)(C)C[C@H](NC(=O)C(=O)OCc1ccccc1)C(=O)N1C[C@]2(C[C@H]1C#N)C(=O)Nc1ccccc12` [Example 189], above 1000 nM; for `CC(C)(C)C[C@H](NC(=O)C(=O)Nc1cc(C(F)(F)F)ccn1)C(=O)N1C[C@]2(C[C@H]1C#N)C(=O)Nc1ccccc12` [Example 153], below 100 nM.
Consider `N#C[C@@H]1C[C@@]2(CN1C(=O)[C@H](CC1CC1)NC(=O)C(=O)Nc1cncc(C(F)(F)F)c1)C(=O)Nc1ccccc12` [Example 173], for which the 50% inhibitory concentration (IC50) under setting [1] was below 100 nM.
As to `CC(C)(C)C[C@H](NC(=O)C(=O)NC(C)(C)c1ccccn1)C(=O)N1C[C@]2(C[C@H]1C#N)C(=O)Nc1ccccc12` [Example 106], under setting [1], the half-maximal inhibitory concentration (IC50) was below 100 nM.
With `Cc1ccc(NC(=O)C(=O)N[C@@H](CC(C)(C)C)C(=O)N2C[C@]3(C[C@H]2C#N)C(=O)Nc2ccccc23)nc1` [Example 127], under setting [1], the half-maximal inhibitory concentration (IC50) was below 100 nM.
For `CC(C)(C)C[C@H](NC(=O)C(=O)N[C@]12CC[C@H](C1)C2)C(=O)N1C[C@]2(C[C@H]1C#N)C(=O)Nc1ccccc12` [Example 136], the IC50 under setting [1] was below 100 nM.
With `[2H]C([2H])([2H])N(C(=O)C(=O)c1ccc(F)cc1)[C@@H](CCCC)C(=O)N1C[C@]2(C[C@H]1C#N)C(=O)Nc1ccccc12` [Example 57], the half-maximal inhibitory concentration (IC50) under setting [1] was below 100 nM.
For `CC(C)(C)C[C@H](NC(=O)C(=O)Nc1c(F)cccc1Cl)C(=O)N1C[C@]2(C[C@H]1C#N)C(=O)Nc1ccccc12` [Example 146], under setting [1], the 50% inhibitory concentration (IC50) was below 100 nM.
For `CC(C)(C)C[C@H](NC(=O)C(=O)C1CC1)C(=O)N1C[C@]2(C[C@H]1C#N)C(=O)Nc1ccccc12` [Example 178], the IC50 under setting [1] was 100 to 1000 nM.
As for `CC(C)(C)C[C@H](NC(=O)C(=O)NC1(C)CC1)C(=O)N1C[C@]2(C[C@H]1C#N)C(=O)Nc1ccccc12` [Example 140], the half-maximal inhibitory concentration (IC50) under setting [1] was below 100 nM.
For `CC(C)(C)C[C@H](NC(=O)C(=O)N1CCC(F)(F)CC1)C(=O)N1C[C@]2(C[C@H]1C#N)C(=O)Nc1ccccc12` [Example 111], under setting [1], the IC50 was above 1000 nM.
The same measure, in the same setting: in the case of `CC(C)(C)C[C@H](NC(=O)C(=O)Nc1ccc(Cl)cc1C(F)(F)F)C(=O)N1C[C@]2(C[C@H]1C#N)C(=O)Nc1ccccc12` [Example 149] it was below 100 nM; in that of `CC(C)(C)C[C@H](NC(=O)C(=O)NC1(C(F)(F)F)CC1)C(=O)N1C[C@]2(C[C@H]1C#N)C(=O)Nc1ccccc12` [Example 134], below 100 nM; in that of `N#C[C@@H]1C[C@@]2(CN1C(=O)[C@H](CC1CC1)NC(=O)C(=O)Nc1ccc(C(F)(F)F)cc1C(F)(F)F)C(=O)Nc1ccccc12` [Example 199], below 100 nM.
On to `N#C[C@@H]1C[C@@]2(CN1C(=O)[C@H](CC1CC1)NC(=O)C(=O)Nc1ccc(C(F)(F)F)nc1)C(=O)Nc1ccccc12` [Example 174], for which the 50% inhibitory concentration (IC50) under setting [1] is below 100 nM.
`N#C[C@@H]1C[C@@]2(CN1C(=O)[C@H](CC1CC1)NC(=O)C(=O)Nc1ccncc1C(F)(F)F)C(=O)Nc1ccccc12` [Example 171]: the 50% inhibitory concentration (IC50) under setting [1] was below 100 nM.
Still for that read-out and setting: in the case of `CCCC[C@H](NC(=O)C(=O)Nc1c(F)cccc1C(F)(F)F)C(=O)N1C[C@]2(C[C@H]1C#N)C(=O)Nc1ccccc12` [Example 79] it was below 100 nM; in that of `CC(C)(C)C[C@H](NC(=O)C(=O)Nc1ccccc1C(F)(F)F)C(=O)N1C[C@]2(C[C@H]1C#N)C(=O)Nc1ccccc12` [Example 195], below 100 nM.
`CC(C)(C)C[C@H](NC(=O)C(=O)Nc1cccnc1C(F)(F)F)C(=O)N1C[C@]2(C[C@H]1C#N)C(=O)Nc1ccccc12` [Example 162]: the IC50 under setting [1] is below 100 nM.
Still for that read-out and setting: in the case of `CC(C)(C)C[C@H](NC(=O)C(=O)Nc1cccc(C(F)(F)F)n1)C(=O)N1C[C@]2(C[C@H]1C#N)C(=O)Nc1ccccc12` [Example 155] it was below 100 nM; in that of `COc1cccc(C)c1NC(=O)C(=O)N[C@@H](CC(C)(C)C)C(=O)N1C[C@]2(C[C@H]1C#N)C(=O)Nc1ccccc12` [Example 144], below 100 nM.
On the same count and under the same terms, for `CC(C)(C)C[C@H](NC(=O)C(=O)Nc1ccc(C(F)(F)F)nc1)C(=O)N1C[C@]2(C[C@H]1C#N)C(=O)Nc1ccccc12` [Example 158] the value was below 100 nM.
